What was measured:
[1] = test system: MCF-7 breast cancer cells; assay: MTT cell proliferation with FXR antagonist DY268; type: cell-based, human; details: MCF-7, BoA2C (8 μM) + DY268 (10 μM), 24, 48 and 72 h
Procedure: The antitumor activity was assessed by MTT assay, as previously reported ([Fang et al., 2018]). Each tested compound and positive control drugs were dissolved in DMSO and diluted with the medium to the test concentrations, and the final concentration of DMSO in the culture medium was controlled at less than 0.5% (v/v). Briefly, cells were cultured at 37°C and dispersed in replicates in 96-well plates with HepG2, Bel-7402, HeLa, MCF-7 and MDCK for 24 h. Fresh medium along with compounds (BoAA-BoAE, BoA2A-BoA2G, BoA3A-BoA3G, BoA4A-BoA4G) at different concentrations was then added to individual wells and incubated for 72 h, with BoA and DDP as the positive control. Experiments on FXR expression were separated into three groups: Control (PBS), BoA2C (8 μM), and BoA2C (8 μM) + DY268 (10 μM) ([Giordano et al., 2016]), with three repeating wells in each. […] After 72 h, the cell was incubated with MTT solution (0.5 mg/ml) for an additional 4 h at 37°C. The produced formazan crystals were solubilized with DMSO, and the optical density of solution was measured at 570 nm using a plate reader (BIORAD 550 spectrophotometer, Bio-rad Life Science Development Ltd., Beijing, China). Wells without drugs were used to be blanks. The IC50 values were defined as the concentration of compounds that produced a 50% proliferation inhibition of surviving cells and calculated using the Graph Pad Prism 5. […]

Hela cells = test system: Hela cells; set-up: method as in list in b5; details: Figure 1, representative BoA derivatives; ref list in b5; cited from earlier work
HCT-116 cells = test system: HCT-116 cells; set-up: method as in list in b5; details: Figure 1, representative BoA derivatives; ref list in b5; cited from earlier work
G-361 cells = test system: G-361 cells; set-up: method as in list in b5; details: Figure 1, representative BoA derivatives; ref list in b5; cited from earlier work
A375 cells = test system: A375 cells; set-up: method as in list in b5; details: Figure 1, representative BoA derivatives; ref list in b5; cited from earlier work
[2] = test system: normally proliferating fibroblast cells; set-up: method as in Saxena et al., 2006; details: ref Saxena et al., 2006; cited from earlier work
[3] = test system: LNCaP prostate cancer cells; set-up: method as in Saxena et al., 2006; details: 100 μM; ref Saxena et al., 2006; cited from earlier work
HepG2 = assay: MTT assay, HepG2 cells; type: cell-based, human; details: Homo sapiens, HepG2, 72 h incubation, read-out: Half maximal inhibitory concentration (IC50) values, HepG2
Source text: (§1) The human hepatocellular carcinoma cell line (HepG2), human hepatocellular carcinoma cell line (Bel-7402), human cervical cancer cell line (Hela), human breast adenocarcinoma cell line (MCF-7) and Madin-Darby canine kidney cell line (MDCK) were obtained from the Chinese Academy of Medical Sciences and Peking Union Medical College. Cultures were maintained as monolayer in RPMI-1640/DMEM supplemented with 10% (v/v) fetal bovine serum (FBS) and 1% (v/v) penicillin/streptomycin (Thermo Technologies, New York, NY, United States) under a humidified atmosphere containing 5% CO2 at 37°C. The BoA derivatives and positive control drugs (BoA and DDP) under study were dissolved in DMSO (Sigma, St. Louis, MO, United States) and added at required concentrations to the cell culture. Cells incubated without the preparations served as the control.
(§2) The antitumor activity was assessed by MTT assay, as previously reported ([Fang et al., 2018]). Each tested compound and positive control drugs were dissolved in DMSO and diluted with the medium to the test concentrations, and the final concentration of DMSO in the culture medium was controlled at less than 0.5% (v/v). Briefly, cells were cultured at 37°C and dispersed in replicates in 96-well plates with HepG2, Bel-7402, HeLa, MCF-7 and MDCK for 24 h. Fresh medium along with compounds (BoAA-BoAE, BoA2A-BoA2G, BoA3A-BoA3G, BoA4A-BoA4G) at different concentrations was then added to individual wells and incubated for 72 h, with BoA and DDP as the positive control. Experiments on FXR expression were separated into three groups: Control (PBS), BoA2C (8 μM), and BoA2C (8 μM) + DY268 (10 μM) ([Giordano et al., 2016]), with three repeating wells in each. In separate wells, BoA2C and DY268 were introduced and cultured for 72 h. After 72 h, the cell was incubated with MTT solution (0.5 mg/ml) for an additional 4 h at 37°C. The produced formazan crystals were solubilized with DMSO, and the optical density of solution was measured at 570 nm using a plate reader (BIORAD 550 spectrophotometer, Bio-rad Life Science Development Ltd., Beijing, China). Wells without drugs were used to be blanks. The IC50 values were defined as the concentration of compounds that produced a 50% proliferation inhibition of surviving cells and calculated using the Graph Pad Prism 5. The inhibitory rate was calculated in the following Equation 1, where OD is the optical density: % inhibition=[1−(OD Sample group−OD Blank group)/(OD Control group−OD Blank group)]×100% (1)

MDCK = assay: MTT assay, MDCK normal cell line; type: cell-based, canine; details: Canis lupus familiaris, MDCK, 72 h incubation, normal cell line, read-out: Half maximal inhibitory concentration (IC50) values, MDCK
Source text: as §1, §2

MCF-7 = assay: MTT assay, MCF-7 cells; type: cell-based, human; details: Homo sapiens, MCF7, 72 h incubation, read-out: Half maximal inhibitory concentration (IC50) values, MCF-7
Source text: as §1, §2

Bel-7402 = assay: MTT assay, Bel-7402 cells; type: cell-based, human; details: Homo sapiens, Bel-7402, 72 h incubation, read-out: Half maximal inhibitory concentration (IC50) values, Bel-7402
Source text: as §1, §2

Hela = assay: MTT assay, Hela cells; type: cell-based, human; details: Homo sapiens, HeLa, 72 h incubation, read-out: Half maximal inhibitory concentration (IC50) values, Hela
Source text: as §1, §2

DLD-1 cells = test system: DLD-1 cells; set-up: method as in list in b5; details: Figure 1, representative BoA derivatives; ref list in b5; cited from earlier work
SW872 = test system: SW872; set-up: method as in list in b5; details: Figure 1, representative BoA derivatives; ref list in b5; cited from earlier work
LNCaP cells = test system: LNCaP cells; set-up: method as in list in b5; details: Figure 1, representative BoA derivatives; ref list in b5; cited from earlier work

Structure (SMILES) | IC50 (HepG2) | IC50 (MDCK) | IC50 (MCF-7) | IC50 (Bel-7402) | melting point | IC50 (Hela) | further results
COc1cccc(Cn2cc(C(=O)Nc3ccc(C)c(S(=O)(=O)N4CCOCC4)c3)c(-c3ccc(C)cc3)n2)c1 [DY268] |  |  |  |  |  |  | effect of DY268 on BoA2C antiproliferative activity [1]: reversed BoA2C inhibitory impact on the growth of MCF-7 breast cancer cells
C=C(C)[C@@H]1CC[C@]2(C(=O)OCCN3CCNCC3)CC[C@]3(C)C(CCC4[C@@]5(C)CC[C@H](O)C(C)(C)C5CC[C@]43C)C12 (stereo partly shown) [Compound 4] |  |  |  |  |  |  | IC50 (Hela cells): 2.05 µM
C=C(C)C1CCC2(C(=O)O)CCC3(C)C(CCC4C5(C)CC(=Cc6ccc([N+](=O)[O-])cc6)C(O)C(C)(C)C5CCC43C)C12 (stereo not shown) [Compound 5] |  |  |  |  |  |  | IC50 (HCT-116 cells): 1.36 µM
C=C(C)C1CCC2(C(=O)OC3OC(COC(C)=O)C(OC(C)=O)C(OC(C)=O)C3OC(C)=O)CCC3(C)C(CCC4C5(C)CCC(O)C(C)(C)C5CCC43C)C12 (stereo not shown) [Compound 2] |  |  |  |  |  |  | IC50 (G-361 cells): 3.4 µM
C=C(C)[C@@H]1CC[C@]2(C(=O)Nc3cncc4ccccc34)CC[C@]3(C)C(CCC4[C@@]5(C)CC[C@H](OC(C)=O)C(C)(C)C5CC[C@]43C)C12 (stereo partly shown) [Compound 3] |  |  |  |  |  |  | IC50 (A375 cells): 1.48 µM
C=C(C)C1CC[C@]2(C(=O)NCCCCC(NC(=O)OC(C)(C)C)C(=O)O)CC[C@]3(C)[C@H](CC[C@@H]4[C@@]5(C)CCC(=O)C(C)(C)[C@@H]5CC[C@]43C)[C@@H]12 (stereo partly shown) [boc-lysinated-betulonic acid] |  |  |  |  |  |  | effect on normally proliferating fibroblast cells [2]: little effect on normally proliferating fibroblast cells; inhibition of LNCaP prostate cancer cells [3]: 95.7%
C=C(C)[C@@H]1CC[C@]2(C(=O)OCCCOC(=O)c3nc(C)c(C)nc3C)CC[C@]3(C)[C@H](CC[C@@H]4[C@@]5(C)CCC(=O)C(C)(C)[C@@H]5CC[C@]43C)[C@@H]12 [BoA3E, (3,5,6-Trimethylpyrazin-2-acyloxy)-propyl-3-oxolup-20(29)-en-28-oate] | 20.2 ± 0.53 µM | > 30 µM | 29.5 ± 0.89 µM | 11.2 ± 1.55 µM | 57 to 59 °C | 10.1 ± 0.15 µM | 
C=C(C)[C@@H]1CC[C@]2(C(=O)OCc3nccnc3C)CC[C@]3(C)[C@H](CC[C@@H]4[C@@]5(C)CCC(=O)C(C)(C)[C@@H]5CC[C@]43C)[C@@H]12 [BoAB, (3-Methylpyrazin-2-yl)-methyl-3-oxolup-20(29)-en-28-oate] | 11.1 ± 0.27 µM | > 30 µM | 10 ± 0.26 µM | 7.73 ± 1.92 µM | 80 to 82 °C | 11.8 ± 0.58 µM | 
C=C(C)C1CCC2(COC(C)=O)CCC3(C)C(CCC4C5(C)CCC(OC6OC(CO)C(O)C(O)C6O)C(C)(C)C5CCC43C)C12 (stereo not shown) [Compound 6] |  |  |  |  |  |  | IC50 (DLD-1 cells): 4.45 µM
C=C(C)[C@@H]1CC[C@]2(C(=O)OCC(N)(CO)CO)CC[C@]3(C)[C@H](CC[C@@H]4[C@@]5(C)CC[C@H](OC(C)=O)C(C)(C)[C@@H]5CC[C@]43C)[C@@H]12 [Compound 7] |  |  |  |  |  |  | IC50 (SW872): 1.8 µM
C=C(C)[C@@H]1CC[C@]2(C(=O)OCCCCOC(=O)c3cnccn3)CC[C@]3(C)[C@H](CC[C@@H]4[C@@]5(C)CCC(=O)C(C)(C)[C@@H]5CC[C@]43C)[C@@H]12 [BoA4A, (Pyrazin-2-acyloxy)-butyl-3-oxolup-20(29)-en-28-oate] | 12.9 ± 4 µM | 25.3 ± 4.14 µM | 9.13 ± 0.4 µM | 9.39 ± 0.73 µM | 69 to 71 °C | 13.82 ± 0.12 µM | 
C=C(C)[C@@H]1CC[C@]2(C(=O)OCCOC(=O)c3ccnnc3)CC[C@]3(C)[C@H](CC[C@@H]4[C@@]5(C)CCC(=O)C(C)(C)[C@@H]5CC[C@]43C)[C@@H]12 [BoA2G] | > 30 µM | 13 ± 0.46 µM | > 30 µM | 24.8 ± 2.43 µM | 130 to 132 °C | 5.81 ± 0.24 µM | 
C=C(C)[C@@H]1CC[C@]2(C(=O)OCCOC(=O)c3cncc(C)n3)CC[C@]3(C)[C@H](CC[C@@H]4[C@@]5(C)CCC(=O)C(C)(C)[C@@H]5CC[C@]43C)[C@@H]12 [BoA2D, (6-Methylpyrazin-2-acyloxy)-ethyl-3-oxolup-20(29)-en-28-oate] | 7.32 ± 2.88 µM | > 30 µM | 8.32 ± 1.28 µM | 8.22 ± 0.43 µM | 139 to 141 °C | 14.9 ± 1.84 µM | 
C=C(C)C1CC[C@]2(C(=O)NCCCCC(NC(=O)OC(C)(C)C)C(=O)O)CC[C@]3(C)[C@H](CC[C@@H]4[C@@]5(C)CCC(=O)C(C)(C)[C@@H]5CC[C@]43C)[C@@H]12 (stereo partly shown) [Compound 1] |  |  |  |  |  |  | IC50 (LNCaP cells): 10 µM
C=C(C)[C@@H]1CC[C@]2(C(=O)OCc3cnc(C)cn3)CC[C@]3(C)[C@H](CC[C@@H]4[C@@]5(C)CCC(=O)C(C)(C)[C@@H]5CC[C@]43C)[C@@H]12 [BoAC, (5-Methylpyrazin-2-yl)-methyl-3-oxolup-20(29)-en-28-oate] | 8.95 ± 4.76 µM | > 30 µM | 8.94 ± 1.3 µM | 8.24 ± 2.43 µM | 125 to 127 °C | 11.9 ± 1.05 µM | 

— paper PMC9486541, “Design, synthesis and cytotoxic evaluation of novel betulonic acid-diazine derivatives as potential antitumor agents” (Frontiers in Chemistry, 2022)
